Tests used:
[1] = tested on: Blood-loss Anemia Model; assay: Blood-loss anemia model, rats; conditions: 8.64 mg Fe/kg (middle dosage / positive controls), n=10;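 also: male Wistar rats made anemic by repeated orbital bloodletting, kept on iron-low diet with deionized water while dosed, compared against untreated anemic model and normal-diet control groups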
Method: Ferrous gluconate, the positive control drug, yellow-green powder and 11% ferrous content, was purchased from Ganjian Pharmaceutical Company of Jianxi Province. Ferrous fumarate, 6.4% ferrous content, was purchased from the 18th Pharmaceutical Company of Shanghai. All drugs were diluted by distilled water.
7 groups were prepared as hemolytic anemia groups and one group was taken as normal control group supplemented with normal diet and water. The hemolytic anemia model was prepared by subjecting rats to inner canthus bloodletting of right eye through capillary glass tube. The first bloodletting content was 2.0 ml for each rat and in that time the range of hemochrome for rats was from 9.78 to 10.65 g %. Two days later, the second bloodletting (2 ml/rat) was carried out with the hemochrome values of 7.40-7.88 g %. The total bloodletting volume for each rat was 4 ml and was 32.9% in volume of the whole blood circulating the body.
While one hemolytic anemia group and one normal control group were taken as reference groups compared with other groups left. These two groups' rats were killed and the blood parameters were recorded. Other six groups now were randomly divided into three treatment groups of ferrous L-threonate with high, middle and low dosages respectively, two positive drugs control groups of ferrous gluconate and ferrous fumarate and one model group. At the end of 12 days and 18 days experimental periods, 5 and 10 rats of each group were killed correspondingly. During the course of experiment, the variations of hemochrome content were examined with 6 days interval.
While Element ferrous content 8.64 mg/kg as ferrous gluconate or ferrous fumarate was for positive drug control group. The groups for blood-loss anemia were provided iron-low diet and deionized water during the period of the administration of drugs, while the normal animal control group was provided normal diet and deionized water.

[2] = rat, in vivo, po, 2.5 mg/kg, 72 h
Method: Its chemical formula is Fe(C4 H7 O5)2.2H2 O, molecular weight:362.
Animals: Male Wistar rats were supplied by Experimental Animal Center, Tumor Institute of Heilongjian Province with body weight of 140 g-180 g. The iron-low diet contains iron 0.9 mg/kg.
50 rats were randomly divided into 5 groups of [19] 10 rats each. On this basis of administration of iron-low diet, each group of rats was administered respectively by gavage according to the dosage below:
High dosage group: Fe, 5 mg/kg, ferrous L-threonate, 32.32 mg/kg;
Middle dosage group: Fe, 2.5 mg/kg, ferrous L-threonate, 16.16 mg/kg;
Low dosage group: Fe, 1.0 mg/kg, ferrous L-threonate, 6.46 mg/kg;
Positive drug control group (ferrous sulfate): Fe, 2.5 mg/kg, ferrous sulfate, 12.43 mg/kg;
Negative drug control group (iron-low diet): Fe, 0.9 mg/kg (measured value).
After the end of 7 days feeding normal diet period, rats were supplemented with iron-low diet prepared according to AOAC formula for another 7 days. The 1-3 groups were treatment groups and supplemented with ferrous L-threonate 32.32 mg/kg (5 mgFe/kg, high dose group), 16.16 mg/kg (2.5 mg Fe/kg, middle dose group) and 6.46 mg/kg (1.0 mg Fe/kg, low dose group), respectively. The forth, positive drug control group, was provided with ferrous sulfate 12.43 mg/kg (2.5 mg Fe/kg). The fifth was model control group and was offered with iron-low diet (0.9 mg Fe/kg). Each groups were arranged to take drug one time by I.G (gavage) method per day and in the same time were supplemented with deionized water.
The test was sustained three days. Each rat's excrement was collected, dried at temperature 80-90° C., weighed and ground into 40-60 meshes. About 0.5 to 0.6 gram sample was taken and a mixture of nitric acid and perchloric acid at a ratio of 4:1 was added therein until completion of digestion. The constant volume is 10 ml. The iron content of excrement was determined by atomic absorption method and the iron absorptive rate for each rat can be calculated by the formula listed below. [formula]

[3] = tested on: IDA; conditions: in vivo; cited from earlier work
[4] = tested on: lymphoma cells; conditions: cited from earlier work
[5] = tested on: Hemolytic Anemia Model; assay: Hemolytic anemia model (acetylphenylhydrazine), rats; type: in vivo, male Wistar rats; conditions: 8.64 mg Fe/kg (middle dosage / positive control)
Method: 1. […] All drugs were diluted by distilled water.
2. […] Animal diet also was purchased from Beijing Medical University.
(1) Hemolytic Anemia Model: Hemolytic anemia model was prepared for rats by injecting reagent of acetylphenylhydrazine (C8 H10 N2 O, produced by Beijing Biochemical Company) subcutaneously. The drug acetyphenylhydrazine was mixed with physiological saline to get its injection solution of 4% by weight of acetyphenylhydrazine. The solution was injected subcutaneously into each rat with a dosage of 57 μg/g at the beginning of the experiments. The content of blood hemochrome for each rat was examined at 2 days and 4 days later, respectively. When the mean blood hemochrome decreased to about 6.11±0.25 g %, rats were randomly divided into 6 groups of 18 rats each. […] The forth groups was positive drug control groups. The fifth group and the sixth group were designed as model group and normal control group, respectively.

| Compound | Blood hemochrome content ([1]; 6 days after treatment) | Blood hemochrome content ([1]; 12 days after treatment) | GPC (blood granulophilocyte) ([1]; 12 days) | RBC ([1]; 12 days) | Blood hemochrome content ([1]; 18 days after treatment) | GPC (blood granulophilocyte) ([1]; 18 days) | RBC ([1]; 18 days) | Blood hemochrome content ([1]; before treatment) | Absorptivity [2] | side effects [3] | uptake of vitamin C by the lymphoma cells [4] | Iron content of whole blood [5] | Serum ferritin (SF) [5] | hemoglobin content ([5]; after anemia (before treatment)) | hemoglobin content ([5]; before anemia (baseline)) | hemoglobin content ([5]; one week after treatment) | hemoglobin content ([5]; two weeks after treatment) |
| --- | --- | --- | --- | --- | --- | --- | --- | --- | --- | --- | --- | --- | --- | --- | --- | --- | --- |
| O=C([O-])/C=C/C(=O)[O-].[Fe+2] [Ferrous fumarate, reference compound] | 7.80 ± 0.24 | 10.12 ± 0.52 | 12.66% | 4.2e+12 L⁻¹ | 11.84 ± 0.45 | 9.04% | 5.14e+12 L⁻¹ | 7.43 ± 0.85 | – | – | – | – | – | – | – | – | – |
| ferrous sulfate [reference compound] | – | – | – | – | – | – | – | – | 42.00 ± 1.02% | limited because of its side effects | – | – | – | – | – | – | – |
| O=C(O)[C@H](O)[C@@H](O)CO [Calcium L-threonate] | – | – | – | – | – | – | – | – | – | – | can improve uptake of vitamin C by the lymphoma cells | – | – | – | – | – | – |
| Ferrous gluconate [reference compound] | 7.95 ± 0.30 | 10.50 ± 0.61 | 12.66% | 4.488e+12 L⁻¹ | 11.80 ± 0.63 | 9.04% | 5.14e+12 L⁻¹ | 7.50 ± 0.76 | – | – | – | 286.04 ± 26.797 µg/mL | 20.14 ± 2.83 ng/mL | 6.57 g % | 15.34 g % | 10.62 g % | 12.65 g % |

From patent publication US6313170A, “L-threonate ferrous, as well as pharmaceutical composition and use for improving and treating human anemia thereof” (priority 1997, dated 2001)
